Holding throughout (type): in vivo
In test [1] the test system is Lolium rigidum. Kind of test: Post-emergence herbicidal action against LOLRI. To be noted: visual rating about 3 weeks after treatment. Summed up:
(§1)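 Post-emergence application onto green parts at the one-leaf stage, 2 to 3 weeks after sowing in sandy loam. Spray carried 0.5% additive at a water rate of 600 l/ha. Percent activity assessed by eye at about 3 weeks, where 100% means plants died and 0% matches controls.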

Test [2] concerns Amaranthus retroflexus. The experiment in a line: Post-emergence herbicidal action against AMARE. Summed up:
as §1

In test [3] the test system is Veronica persica. The experiment in a line: Post-emergence herbicidal action against VERPE. In a few lines: as §1
For test [4], the system named is Setaria viridis. Kind of test: Post-emergence herbicidal action against SETVI. The following applies: visual rating about 3 weeks after treatment. Summed up: as §1
For test [5], the system named is Alopecurus myosuroides. Kind of test: Post-emergence herbicidal action against ALOMY. The following applies: visual rating about 3 weeks after treatment. Summed up: as §1
The test system of test [6] is Matricaria inodora. Kind of test: Post-emergence herbicidal action against MATIN. The following applies: 20 g a.i./ha. The protocol: (§2) Post-Emergence Herbicidal Action Against Harmful Plants and Crop Plant Compatibility Seeds of monocotyledonous and dicotyledonous weeds and crop plants are placed in sandy loam in plastic or wood-fibre pots, covered with soil and cultivated in a greenhouse under controlled growth conditions. 2 to 3 weeks after sowing, the test plants are treated at the one-leaf stage. The compounds of the invention, formulated in the form of wettable powders (WP) or as emulsion concentrates (EC), are then sprayed onto the green parts of the plants as aqueous suspension or emulsion with addition of 0.5% additive at a water application rate of 600 l/ha (converted). After the test plants have been kept in the greenhouse under optimum growth conditions for about 3 weeks, the activity of the preparations is rated visually in comparison to untreated controls. For example, 100% activity=the plants have died, 0% activity=like control plants. [table]

The test system of test [7] is Echinochloa crus-galli. The experiment in a line: Post-emergence herbicidal action against ECHCG. The following applies: visual rating about 3 weeks after treatment. In a few lines: as §1
Test [8] concerns DIGSA. The experiment in a line: Post-emergence herbicidal action against DIGSA. The following applies: visual rating about 3 weeks after treatment. In a few lines:
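Greenhouse-grown plants sprayed at one-leaf stage (2–3 weeks after sowing) with WP or EC formulations as aqueous suspension/emulsion plus 0.5% additive, 600 l/ha water. Activity rated visually about 3 weeks later versus untreated controls, 100% = plants dead, 0% = like controls.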

In test [9] the test system is Abutilon theophrasti. Kind of test: Post-emergence herbicidal action against ABUTH. The following applies: visual rating about 3 weeks after treatment. In a few lines: as §1
The subject of test [10] is Polygonum convolvulus. Kind of test: Post-emergence herbicidal action against POLCO. Summed up:
as §1

In test [11] the test system is Pharbitis purpurea. The experiment in a line: Post-emergence herbicidal action against PHBPU. To be noted: 20 g a.i./ha. Summed up: as §1
Test [12] relates to Avena fatua. The experiment in a line: Post-emergence herbicidal action against AVEFA. To be noted: visual rating about 3 weeks after treatment. Summed up: as §1
Test [13] relates to Hordeum murinum. The experiment in a line: Post-emergence herbicidal action against HORMU. As to the method: as §2
For test [14], the system named is Viola tricolor. The experiment in a line: Post-emergence herbicidal action against VIOTR. As to the method: as §2
Test [15] relates to Stellaria media. The experiment in a line: Post-emergence herbicidal action against STEME. As to the method:
as §2

These results are taken from US12185723B2, “Herbicidally active 3-phenylisoxazoline-5-carboxamides of s-containing cyclopentenylcarboxylic esters” (Bayer Aktiengesellschaft, priority 2019, dated 2025).

`COC1(C(=O)NC2C=CC(C(=O)OCCSC(=O)C(C)C)C2)CC(c2cc(F)cc(F)c2)=NO1` (stereo not shown) [Example I-23]: the “Herbicidal action against [%] LOLRI” value in test [1] (20 g a.i./ha) was found to be 90%. The “Herbicidal action against [%] AMARE” value in [2] (20 g a.i./ha) was determined as 80%. Further, the “Herbicidal action against [%] VERPE” value in test [3] (20 g a.i./ha) amounted to 90%. The “Herbicidal action against [%] SETVI” value in test [4] (20 g a.i./ha) is recorded as 80%. In addition, in test [5] (20 g a.i./ha), the “Herbicidal action against [%] ALOMY” value turned out to be 90%. For the same compound, in [6], the “Herbicidal action against [%] MATIN” value was 80%. For the same compound, in test [7] (20 g a.i./ha), the “Herbicidal action against [%] ECHCG” value is 90%. The “Herbicidal action against [%] DIGSA” value in [8] (20 g a.i./ha) worked out at 90%. The “Herbicidal action against [%] ABUTH” value in test [9] (20 g a.i./ha) was found to be 80%. Besides, the “Herbicidal action against [%] POLCO” value in [10] (20 g a.i./ha) was 80%. Also, the “Herbicidal action against [%] PHBPU” value in test [11] was determined as 80%. Besides, the “Herbicidal action against [%] AVEFA” value in [12] (20 g a.i./ha) stood at 90%.

Regarding `COC1(C(=O)NC2C=CC(C(=O)OCCSC(=O)N(C)C)C2)CC(c2cc(F)cc(F)c2)=NO1` (stereo not shown) [Example I-24], the “Herbicidal action against [%] LOLRI” value in test [1] (20 g a.i./ha) is recorded as 90%. Further, in test [2] (20 g a.i./ha), the “Herbicidal action against [%] AMARE” value worked out at 90%. Further, the “Herbicidal action against [%] VERPE” value in [3] (20 g a.i./ha) was 100%. For the same compound, in test [4] (20 g a.i./ha), the “Herbicidal action against [%] SETVI” value stood at 90%. Moreover, the “Herbicidal action against [%] ALOMY” value in [5] (20 g a.i./ha) is 80%. In [6], the “Herbicidal action against [%] MATIN” value came out at 80%. In addition, the “Herbicidal action against [%] ECHCG” value in test [7] (20 g a.i./ha) was 90%. Further, in test [8] (20 g a.i./ha), the “Herbicidal action against [%] DIGSA” value was determined as 80%. In test [9] (20 g a.i./ha), the “Herbicidal action against [%] ABUTH” value amounted to 80%. Also, in test [10] (20 g a.i./ha), the “Herbicidal action against [%] POLCO” value turned out to be 80%. For the same compound, the “Herbicidal action against [%] PHBPU” value in [11] is listed as 80%. Also, in [12] (20 g a.i./ha), the “Herbicidal action against [%] AVEFA” value worked out at 90%.

For `CSCCOC(=O)C1C=CC(NC(=O)C2(C3CC3)CC(c3cc(F)cc(F)c3)=NO2)C1` (stereo not shown) [Example I-30], the “Herbicidal action against [%] LOLRI” value in [1] (20 g a.i./ha) and in [1] (80 g a.i./ha) was 90% each time. Further, in test [2] (80 g a.i./ha, visual rating about 3 weeks after treatment), the “Herbicidal action against [%] AMARE” value turned out to be 80%. For the same compound, the “Herbicidal action against [%] HORMU” value in test [13] (20 g a.i./ha) and in [13] (80 g a.i./ha) was 90% each time. Also, the “Herbicidal action against [%] VERPE” value in test [3] (20 g a.i./ha) turned out to be 80%; in test [3] (80 g a.i./ha), 90%. Further, the “Herbicidal action against [%] SETVI” value in test [4] (80 g a.i./ha) turned out to be 80%. For the same compound, the “Herbicidal action against [%] ALOMY” value in test [5] (80 g a.i./ha) was 90%. Also, the “Herbicidal action against [%] DIGSA” value in test [8] (20 g a.i./ha) was 80%; in test [8] (80 g a.i./ha) it was 90%. Moreover, the “Herbicidal action against [%] POLCO” value in [10] (80 g a.i./ha) stood at 80%. Also, the “Herbicidal action against [%] AVEFA” value in test [12] (20 g a.i./ha) and in test [12] (80 g a.i./ha) was 90% each time. For the same compound, the “Herbicidal action against [%] VIOTR” value in test [14] (80 g a.i./ha) worked out at 80%.

Take `CSCCOC(=O)C1C=CC(NC(=O)C2(C)CC(c3cccc(C#N)c3)=NO2)C1` (stereo not shown) [Example I-40]: the “Herbicidal action against [%] LOLRI” value in test [1] (20 g a.i./ha) and in [1] (80 g a.i./ha) was 80% in each case. For the same compound, the “Herbicidal action against [%] VERPE” value in test [3] (20 g a.i./ha) and in test [3] (80 g a.i./ha) was 80% each time. Also, the “Herbicidal action against [%] ALOMY” value in test [5] (80 g a.i./ha) was determined as 80%. Also, the “Herbicidal action against [%] ECHCG” value in test [7] (20 g a.i./ha) and in test [7] (80 g a.i./ha) was 80% in each case. Besides, in [8] (80 g a.i./ha), the “Herbicidal action against [%] DIGSA” value is 80%. Further, the “Herbicidal action against [%] STEME” value in test [15] (20 g a.i./ha) and in [15] (80 g a.i./ha) was 80% each time. The “Herbicidal action against [%] ABUTH” value in test [9] (20 g a.i./ha) and in test [9] (80 g a.i./ha) was 80% each time. Further, the “Herbicidal action against [%] VIOTR” value in test [14] (20 g a.i./ha) amounted to 80%.

Consider `COC(=O)CSCCOC(=O)C1C=CC(NC(=O)C2(C)CC(c3cc(F)cc(F)c3)=NO2)C1` (stereo not shown) [Example I-64], for which the “Herbicidal action against [%] LOLRI” value in test [1] (20 g a.i./ha) was determined as 90%. In addition, the “Herbicidal action against [%] AMARE” value in test [2] (20 g a.i./ha) turned out to be 90%. Moreover, the “Herbicidal action against [%] VERPE” value in test [3] (20 g a.i./ha) is 80%. Besides, the “Herbicidal action against [%] SETVI” value in test [4] (20 g a.i./ha) stood at 80%. For the same compound, the “Herbicidal action against [%] ALOMY” value in test [5] (20 g a.i./ha) is 90%. Also, the “Herbicidal action against [%] MATIN” value in test [6] is given as 90%. Moreover, in [7] (20 g a.i./ha), the “Herbicidal action against [%] ECHCG” value was 90%. The “Herbicidal action against [%] DIGSA” value in [8] (20 g a.i./ha) came out at 90%. Also, the “Herbicidal action against [%] ABUTH” value in [9] (20 g a.i./ha) stood at 80%. Also, the “Herbicidal action against [%] POLCO” value in [10] (20 g a.i./ha) was 80%. Besides, the “Herbicidal action against [%] PHBPU” value in test [11] worked out at 80%. Further, the “Herbicidal action against [%] AVEFA” value in test [12] (20 g a.i./ha) is given as 90%.
